Literature values, collected in US20260263394A1, “MEDICAL PATCH […] […] AGENT” (LTS LOHMANN THERAPIE-SYSTEME AG, priority 2023, published 2026).

Legend:
TRPV1 = TRPV1 (Homo sapiens, UniProt Q8NER1); settings: relative to capsaicin
[1] = sub-microgram (less than 1/1,000,000th of a gram) quantities, oral

Chain of TRPV1 (Q8NER1 whole entry, species assumed): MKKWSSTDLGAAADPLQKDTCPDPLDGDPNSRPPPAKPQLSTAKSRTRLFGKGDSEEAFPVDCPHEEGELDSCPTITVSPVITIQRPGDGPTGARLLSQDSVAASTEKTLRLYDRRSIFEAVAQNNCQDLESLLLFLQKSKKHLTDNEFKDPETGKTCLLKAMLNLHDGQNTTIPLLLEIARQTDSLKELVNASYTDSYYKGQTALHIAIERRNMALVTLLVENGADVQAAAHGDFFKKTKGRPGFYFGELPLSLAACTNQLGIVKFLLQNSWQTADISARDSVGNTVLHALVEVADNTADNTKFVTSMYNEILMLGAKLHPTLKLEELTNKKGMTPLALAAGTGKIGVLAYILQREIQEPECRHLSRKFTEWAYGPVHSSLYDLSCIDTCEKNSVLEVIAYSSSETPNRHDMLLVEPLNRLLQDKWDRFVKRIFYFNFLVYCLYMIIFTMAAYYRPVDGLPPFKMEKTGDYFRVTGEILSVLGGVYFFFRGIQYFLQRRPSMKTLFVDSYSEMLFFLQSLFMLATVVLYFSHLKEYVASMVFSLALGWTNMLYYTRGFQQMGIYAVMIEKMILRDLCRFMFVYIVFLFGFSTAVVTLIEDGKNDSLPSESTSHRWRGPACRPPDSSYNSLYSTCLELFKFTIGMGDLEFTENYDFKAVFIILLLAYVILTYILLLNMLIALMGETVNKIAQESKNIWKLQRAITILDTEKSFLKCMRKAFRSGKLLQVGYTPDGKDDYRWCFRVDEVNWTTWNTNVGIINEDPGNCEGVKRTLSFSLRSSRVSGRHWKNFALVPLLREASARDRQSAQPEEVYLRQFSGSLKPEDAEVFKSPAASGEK

C=C(C)[C@]12C[C@@H](C)[C@@]34O[C@@](Cc5ccccc5)(O[C@@H]1[C@@H]3C=C(COC(=O)Cc1ccc(O)c(OC)c1)C[C@]1(O)C(=O)C(C)=C[C@@H]41)O2 [Resiniferatoxin, [(1R,2R,6R,10S,11R,13R, 15R, 17R)-13-benzyl-6-hydroxy-4,17-dimethyl-5-oxo-15-(prop-1-en-2-yl)-12,14,18-trioxapentacyclo [11.4.1.0^1,10.0^2,6.0^11,15]octadeca-3,8-dien-8-yl]methyl 2-(4-hydroxy-3-methoxyphenyl)acetate]
times higher binding affinity for TRPV1 than capsaicin (TRPV1): about 500 times
effect when ingested orally [1]: severe burning pain
